The source of these data is ChEMBL document CHEMBL4130461, “New chemotype of selective and potent inhibitors of human delta 24-dehydrocholesterol reductase” (Eur J Med Chem, 2017).

Activity calls are given as the source filed them. The calls are words filed in the database; no cut-off is given here. A value given as a limit tells only on which side of the number the result lay.

For one series, the system named is HL-60. The series can be described thus: Induction of sterol accumulation in human HL60 cells assessed as desmosterol accumulation at 1 uM incubated for 24 hrs by GC-MS analysis. It counts as functional, cell-based.
Settings: not given
Regarding `C[C@H](CO)[C@H]1CC[C@H]2[C@@H]3CC=C4C[C@@H](O)CC[C@]4(C)[C@H]3CC[C@]12C`, the result was Active.

As for `CCCC(=O)NC[C@@H](C)[C@H]1CC[C@H]2C3=CC[C@H]4C[C@@H](OC(C)=O)CC[C@]4(C)[C@H]3CC[C@]12C`, the result was Active.

As for `CCCC(=O)N(C)C[C@@H](C)[C@H]1CC[C@H]2C3=CC[C@H]4C[C@@H](OC(C)=O)CC[C@]4(C)[C@H]3CC[C@]12C`, the result was Active.

With `CCC(=O)N(C)C[C@@H](C)[C@H]1CC[C@H]2C3=CC[C@H]4C[C@@H](OC(C)=O)CC[C@]4(C)[C@H]3CC[C@]12C`, the outcome was Active.

A further series deals with HL-60. The series can be described thus: Induction of sterol accumulation in human HL60 cells at 1 uM incubated for 24 hrs by GC-MS analysis. It counts as functional, cell-based.
Settings: not given
Turning to `CC(=O)O[C@H]1CC[C@@]2(C)[C@@H](CC=C3[C@@H]2CC[C@]2(C)[C@@H]([C@H](C)C(=O)N(C)C)CC[C@@H]32)C1`, the result was inactive.

With `C[C@H](O)[C@H]1CC[C@H]2[C@@H]3CC=C4C[C@@H](O)CC[C@]4(C)[C@H]3CC[C@]12C`, the outcome was inactive.

With `CC(=O)O[C@H]1CC[C@@]2(C)[C@@H](CC=C3[C@@H]2CC[C@]2(C)[C@@H]([C@H](C)C(=O)O)CC[C@@H]32)C1`, the outcome was inactive.

Turning to `CC(=O)O[C@H]1CC[C@@]2(C)[C@@H](CC=C3[C@@H]2CC[C@]2(C)[C@@H]([C@H](C)C(=O)N(C)CC(C)C)CC[C@@H]32)C1`, the result was inactive.

Take `CCONC(=O)[C@@H](C)[C@H]1CC[C@H]2C3=CC[C@H]4C[C@@H](OC(C)=O)CC[C@]4(C)[C@H]3CC[C@]12C`: the result was inactive.

Turning to `CC(=O)O[C@H]1CC[C@@]2(C)[C@@H](CC=C3[C@@H]2CC[C@]2(C)[C@@H]([C@H](C)C=O)CC[C@@H]32)C1`, the outcome was inactive.

As to `CC(=O)O[C@H]1CC[C@@]2(C)[C@@H](CC=C3[C@@H]2CC[C@]2(C)[C@@H]([C@H](C)C(=O)NO)CC[C@@H]32)C1`, the outcome was inactive.

A further series concerns HL-60. The series can be described thus: Induction of sterol accumulation in human HL60 cells assessed as zymosterol accumulation at 50 uM incubated for 24 hrs by GC-MS analysis. It counts as functional, cell-based.
Settings: not given
Consider `CCCC(=O)NC[C@@H](C)[C@H]1CC[C@H]2C3=CC[C@H]4C[C@@H](OC(C)=O)CC[C@]4(C)[C@H]3CC[C@]12C`, for which the result was Active.

A further series deals with HL-60. The series can be described thus: Induction of sterol accumulation in human HL60 cells assessed as desmosterol accumulation at 50 uM incubated for 24 hrs by GC-MS analysis. It counts as functional, cell-based.
Settings: not given
Take `CC(=O)O[C@H]1CC[C@@]2(C)[C@@H](CC=C3[C@@H]2CC[C@]2(C)[C@@H]([C@H](C)C(=O)N(C)CC(C)C)CC[C@@H]32)C1`: the result was Active.

In the case of `C[C@H](CO)[C@H]1CC[C@H]2[C@@H]3CC=C4C[C@@H](O)CC[C@]4(C)[C@H]3CC[C@]12C`, the outcome was Active.

Another series relates to HL-60. The experiment in a line: Induction of sterol accumulation in human HL60 cells at 0.1 uM incubated for 24 hrs by GC-MS analysis. Format: functional, cell-based.
Settings: not given
Take `CC(C)=CCC[C@@H](C)[C@H]1CC[C@H]2C3=CC[C@H]4C[C@@H](O)CC[C@]4(C)[C@H]3CC[C@]12C`: the outcome was inactive.

In the case of `CC(C)=CCC[C@@H](C)[C@H]1CC[C@H]2C3=C(CC[C@]12C)[C@@]1(C)CC[C@H](O)C[C@@H]1CC3`, the result was inactive.

As to `CC(C)CCC[C@@H](C)[C@H]1CC[C@H]2C3=CC[C@H]4C[C@@H](O)CC[C@]4(C)[C@H]3CC[C@]12C`, the result was inactive.

Another series deals with HL-60. The experiment in a line: cells. As to conditions: Homo sapiens.
Description: Cytotoxicity in human HL60 cells by MTT assay
`CC(=O)O[C@H]1CC[C@@]2(C)[C@@H](CC=C3[C@@H]2CC[C@]2(C)[C@@H]([C@H](C)C(=O)N(C)C)CC[C@@H]32)C1` returned an IC50 above 50 µM.

Compound `C[C@H](O)[C@H]1CC[C@H]2[C@@H]3CC=C4C[C@@H](O)CC[C@]4(C)[C@H]3CC[C@]12C` yielded a 50% inhibitory concentration (IC50) above 50 µM.

Regarding `CC(=O)O[C@H]1CC[C@@]2(C)[C@@H](CC=C3[C@@H]2CC[C@]2(C)[C@@H]([C@H](C)C(=O)O)CC[C@@H]32)C1`, the half-maximal inhibitory concentration (IC50) was above 50 µM.

In the case of `CCN(CC)CCO[C@H]1CC[C@@]2(C)C(=CC[C@@H]3[C@@H]2CC[C@]2(C)C(=O)CC[C@@H]32)C1`, the IC50 is above 50 µM.

As for `CC(=O)O[C@H]1CC[C@@]2(C)[C@@H](CC=C3[C@@H]2CC[C@]2(C)[C@@H]([C@H](C)C(=O)N(C)CC(C)C)CC[C@@H]32)C1`, the IC50 is 47 µM.

The compound `C[C@H](CO)[C@H]1CC[C@H]2[C@@H]3CC=C4C[C@@H](O)CC[C@]4(C)[C@H]3CC[C@]12C` gave an IC50 above 50 µM.

As for `CCCC(=O)NC[C@@H](C)[C@H]1CC[C@H]2C3=CC[C@H]4C[C@@H](OC(C)=O)CC[C@]4(C)[C@H]3CC[C@]12C`, the IC50 was above 50 µM.

`CCONC(=O)[C@@H](C)[C@H]1CC[C@H]2C3=CC[C@H]4C[C@@H](OC(C)=O)CC[C@]4(C)[C@H]3CC[C@]12C`: inhibition was half-maximal at 18 µM (IC50).

With `CC(=O)O[C@H]1CC[C@@]2(C)[C@@H](CC=C3[C@@H]2CC[C@]2(C)[C@@H]([C@H](C)C=O)CC[C@@H]32)C1`, the IC50 was above 50 µM.

Regarding `CCCC(=O)N(C)C[C@@H](C)[C@H]1CC[C@H]2C3=CC[C@H]4C[C@@H](OC(C)=O)CC[C@]4(C)[C@H]3CC[C@]12C`, the IC50 stood at 13 µM.

Turning to `CC(=O)O[C@H]1CC[C@@]2(C)[C@@H](CC=C3[C@@H]2CC[C@]2(C)[C@@H]([C@H](C)C(=O)NO)CC[C@@H]32)C1`, half-maximal inhibition (IC50) was put at 18 µM.

Take `CCC(=O)N(C)C[C@@H](C)[C@H]1CC[C@H]2C3=CC[C@H]4C[C@@H](OC(C)=O)CC[C@]4(C)[C@H]3CC[C@]12C`: the midpoint of inhibition, the IC50, lay at 20 µM.

A further series deals with HL-60. The series can be described thus: Cytotoxicity in human HL60 cells at 50 uM by MTT assay. It counts as cell-based. As to conditions: hl-60, 50 µM.
With `CCONC(=O)[C@@H](C)[C@H]1CC[C@H]2C3=CC[C@H]4C[C@@H](OC(C)=O)CC[C@]4(C)[C@H]3CC[C@]12C`, the Activity entry is listed as “Toxic”.

For the compound `CCCC(=O)N(C)C[C@@H](C)[C@H]1CC[C@H]2C3=CC[C@H]4C[C@@H](OC(C)=O)CC[C@]4(C)[C@H]3CC[C@]12C`, the Activity entry is recorded as “Toxic”.

Take `CC(=O)O[C@H]1CC[C@@]2(C)[C@@H](CC=C3[C@@H]2CC[C@]2(C)[C@@H]([C@H](C)C(=O)NO)CC[C@@H]32)C1`: the Activity entry is listed as “Toxic”.

As for `CCC(=O)N(C)C[C@@H](C)[C@H]1CC[C@H]2C3=CC[C@H]4C[C@@H](OC(C)=O)CC[C@]4(C)[C@H]3CC[C@]12C`, the Activity result is “Toxic”.

The subject of another series is HL-60. The experiment in a line: Induction of sterol accumulation in human HL60 cells assessed as holesta-7,24-dien-3beta-ol accumulation at 50 uM incubated for 24 hrs by GC-MS analysis.
Settings: not given
Format: functional, cell-based.
On to `CCCC(=O)NC[C@@H](C)[C@H]1CC[C@H]2C3=CC[C@H]4C[C@@H](OC(C)=O)CC[C@]4(C)[C@H]3CC[C@]12C`, for which the outcome was Active.

Another series has as its system HL-60. The experiment in a line: Induction of sterol accumulation in human HL60 cells at 50 uM incubated for 24 hrs by GC-MS analysis. Format: functional, cell-based.
Settings: not given
Take `CC(=O)O[C@H]1CC[C@@]2(C)[C@@H](CC=C3[C@@H]2CC[C@]2(C)[C@@H]([C@H](C)C(=O)N(C)C)CC[C@@H]32)C1`: the result was inactive.

For the compound `C[C@H](O)[C@H]1CC[C@H]2[C@@H]3CC=C4C[C@@H](O)CC[C@]4(C)[C@H]3CC[C@]12C`, the outcome was inactive.

Regarding `CC(=O)O[C@H]1CC[C@@]2(C)[C@@H](CC=C3[C@@H]2CC[C@]2(C)[C@@H]([C@H](C)C(=O)O)CC[C@@H]32)C1`, the outcome was inactive.

With `CC(=O)O[C@H]1CC[C@@]2(C)[C@@H](CC=C3[C@@H]2CC[C@]2(C)[C@@H]([C@H](C)C=O)CC[C@@H]32)C1`, the result was inactive.

In another series the test system is HL-60. The series can be described thus: Induction of sterol accumulation in human HL60 cells assessed as lathosterol accumulation at 1 uM incubated for 24 hrs by GC-MS analysis. Format: functional, cell-based.
Settings: not given
Take `CCCC(=O)NC[C@@H](C)[C@H]1CC[C@H]2C3=CC[C@H]4C[C@@H](OC(C)=O)CC[C@]4(C)[C@H]3CC[C@]12C`: the outcome was Active.
